Source: patent US20260165323A1, “USE OF STROBILURIN TYPE COMPOUNDS FOR COMBATING PHYTOPATHOGENIC FUNGI CONTAINING AN AMINO ACID SUBSTITUTION F129L IN THE MITOCHONDRIAL CYTOCHROME B PROTEIN CONFERRING RESISTANCE TO QO […]” (priority 2022, published 2026)

Legend:
Format in all cases: in vivo
[1] = test system: Phakopsora pachyrhizi containing the amino acid substitution F129L in the mitochondrial cytochrome b protein; experiment: Use Example 2: protective control of soybean rust on soybeans (PHAKPA P6); settings: inoculated six days after spraying, % diseased leaf area
Method: (§1) The compound was dissolved in a mixture of acetone and/or dimethylsulfoxide and the wetting agent/emulsifier Wettol, which is based on ethoxylated alkylphenoles, in a ratio (volume) solvent-emulsifier of 99 to 1 to give a total volume of 5 ml. Subsequently, water was added to total volume of 100 ml. This stock solution was then diluted with the described solvent-emulsifier-water mixture to the final concentration given in the tables below.
Use Example 2. Protective Control of Soybean Rust on Soybeans Caused by Phakopsora Pachyrhizi (PHAKPA P6)
(§2) Leaves of potted soybean seedlings were sprayed to run-off with the previously described spray solution, containing the concentration of active ingredient as described below. The plants were allowed to air-dry. The trial plants were cultivated for six days in a greenhouse chamber at 23-27° C. and a relative humidity between 60 and 80%. Then the plants were inoculated with spores of Phakopsora pachyrhizi. The strain used contains the amino acid substitution F129L in the mitochondrial cytochrome b protein conferring resistance to Qo inhibitors. To ensure the success the artificial inoculation, the plants were transferred to a humid chamber with a relative humidity of about 95% and 23 to 27° C. for 24 hr. The trial plants were cultivated for up to 14 days in a greenhouse chamber at 23 to 27° C. and a relative humidity between 60 and 80%. The extent of fungal attack on the leaves was visually assessed as % diseased leaf area, the disease level of untreated controls was usually higher than 85%.

[2] = test system: Phakopsora pachyrhizi containing the amino acid substitution F129L in the mitochondrial cytochrome b protein; experiment: Use Example 1: protective control of soybean rust on soybeans (PHAKPA P2); settings: inoculated 2 days after spraying, % diseased leaf area
Method: as §1
Use Example 1. Protective Control of Soybean Rust on Soybeans Caused by Phakopsora pachyrhizi (PHAKPA P2)
as §2, with “active ingredient or their mixture as described” for “active ingredient as described”, “cultivated for 2 days in” for “cultivated for six days in”, “95% and 20 to 24°” for “95% and 23 to 27°”, “20 to 24° C. for” for “23 to 27° C. for”

Puccinia recondita [3] = experiment: Use Example 4: preventative control of brown rust on wheat (PUCCRT P7); settings: inoculated seven days after spraying, % diseased leaf area
Method: as §1
Use Example 4. Preventative Control of Brown Rust on Wheat Caused by Puccinia recondita (PUCCRT P7)
The first two developed leaves of potted wheat seedling were sprayed to run-off with previously described spray solution, containing the concentration of active ingredient or their mixture as described below. Seven days later the plants were dusted with spores of Puccinia recondita. To ensure the success of the artificial inoculation, the plants were transferred to a humid chamber without light and a relative humidity of 95 to 99% and 20 to 24° C. for 24 h. Then the trial plants were cultivated for 9 to 11 days in a greenhouse chamber at 20 to 24° C. and a relative humidity between 65 and 70%. The extent of fungal attack on the leaves was visually assessed as % diseased leaf area, the disease level of untreated controls was usually between 80 and 100%.

Puccinia recondita [4] = experiment: Use Example 3: curative control of brown rust on wheat (PUCCRT K4); settings: % diseased leaf area
Method: as §1
Use Example 3. Curative Control of Brown Rust on Wheat Caused by Puccinia recondita (PUCCRT K4)
The first two developed leaves of potted wheat seedling were dusted with spores of Puccinia recondita. To ensure the success the artificial inoculation, the plants were transferred to a humid chamber without light and a relative humidity of 95 to 99% and 20 to 24° C. for 24 h. The next 3 days the plants were cultivated in a greenhouse chamber at 20 to 24° C. and a relative humidity between 65 and 70%. Then the plants were sprayed to run-off with previously described spray solution, containing the concentration of active ingredient or their mixture as described below. The plants were allowed to air-dry. Then the trial plants were cultivated for 5 to 7 days in a greenhouse chamber at 20 to 24° C. and a relative humidity between 65 and 70%. The extent of fungal attack on the leaves was visually assessed as % diseased leaf area, the disease level of untreated controls was usually between 80 and 100%.

| Compound | % PHAKPA (F129L) Disease level P6 at 4 ppm [1] [%] | % PHAKPA (F129L) Disease level P6 at 16 ppm [1] [%] | % PHAKPA (F129L) Disease level P2 at 4 ppm [2] [%] | % PHAKPA (F129L) Disease level P2 at 16 ppm [2] [%] | % PUCCRT Disease level P7 at 4 ppm (Puccinia recondita [3]) [%] | % PUCCRT Disease level P7 at 16 ppm (Puccinia recondita [3]) [%] | % PUCCRT Disease level K4 at 4 ppm (Puccinia recondita [4]) [%] | % PUCCRT Disease level K4 at 16 ppm (Puccinia recondita [4]) [%] |
| --- | --- | --- | --- | --- | --- | --- | --- | --- |
| COC/C(=N\OCc1c(Cl)cccc1/C(=N\OC)C(=O)OC)c1c(F)cc(Cl)cc1F [compound 89] | 45 | 13 | 53 | 17 | 36 | 25 | – | – |
| CNC(=O)/C(=N/OC)c1cccc(Cl)c1CO/N=C(\COC)c1c(F)ccc(F)c1F [compound 112] | 21 | 0 | 8 | 0 | 43 | 6 | – | – |
| CCOC/C(=N\OCc1c(Cl)cccc1/C(=N\OC)C(=O)NC)c1ccccc1Cl [compound 51] | – | – | – | – | 75 | 53 | 72 | 68 |
| COC/C(=N\OCc1c(Cl)cccc1/C(=N\OC)C(=O)OC)c1ccccc1C [compound 124] | – | – | – | – | 62 | 22 | – | – |
| COC/C(=N\OCc1c(Cl)cccc1/C(=N\OC)C(=O)OC)c1cc(F)c(F)c(F)c1 [compound 72] | 48 | 10 | 19 | 1 | 60 | 16 | – | – |
| CNC(=O)/C(=N/OC)c1cccc(Cl)c1CO/N=C(\COC)c1cccc(Cl)c1Cl [compound 75] | 25 | 11 | 73 | 24 | 67 | 33 | – | – |
| CO/C=C(/C(=O)OC)c1cccc(Cl)c1CO/N=C(\COC)c1c(F)cc(Cl)cc1F [compound 115] | 9 | 1 | 8 | 0 | 57 | 14 | – | – |
| COC/C(=N\OCc1c(Cl)cccc1/C(=N\OC)C(=O)OC)c1cc(F)cc(F)c1 [compound 82] | 57 | 22 | 12 | 0 | 57 | 17 | – | – |
| COC/C(=N\OCc1c(Cl)cccc1/C(=N\OC)C(=O)OC)c1c(F)ccc(F)c1F [compound 111] | 42 | 15 | 39 | 5 | 30 | 17 | – | – |
| CNC(=O)/C(=N/OC)c1cccc(Cl)c1CO/N=C(\COC)c1cccc(C)c1 [compound 127] | 18 | 4 | 21 | 0 | – | – | 58 | 1 |
| CNC(=O)/C(=N/OC)c1cccc(Cl)c1CO/N=C(\COC)c1ccccc1C [compound 122] | 76 | 30 | 82 | 20 | 45 | 20 | – | – |
| CNC(=O)/C(=N/OC)c1cccc(Cl)c1CO/N=C(\COC)c1ccc(F)cc1Cl [compound 94] | 43 | 11 | 29 | 5 | 57 | 26 | – | – |
| COC/C(=N\OCc1c(Cl)cccc1/C(=N\OC)C(=O)OC)c1ccc(F)c(F)c1F [compound 98] | 72 | 31 | 72 | 15 | 50 | 12 | – | – |
| COC/C(=N\OCc1c(Cl)cccc1/C(=N\OC)C(=O)OC)c1ccc(F)cc1F [compound 78] | 45 | 2 | 9 | 0 | 42 | 10 | – | – |
| CCOC/C(=N\OCc1c(Cl)cccc1/C(=N\OC)C(=O)OC)c1cccc(F)c1 [compound 26] | – | – | – | – | 62 | 21 | 82 | 82 |
| COC/C(=N\OCc1c(Cl)cccc1/C(=N\OC)C(=O)OC)c1cccc(OC)c1 [compound 120] | 81 | 45 | 67 | 11 | 22 | 2 | – | – |
| CO/C=C(/C(=O)OC)c1cccc(Cl)c1CO/N=C(\COC)c1cccc(C)c1 [compound 128] | 4 | 1 | 4 | 0 | – | – | 20 | 1 |
| CO/C=C(/C(=O)OC)c1cccc(F)c1CO/N=C(\COC)c1c(F)cc(F)cc1F [compound 125] | – | – | – | – | – | – | 68 | 7 |
| COC/C(=N\OCc1c(Cl)cccc1/C(=N\OC)C(=O)OC)c1ccc(F)c(F)c1 [compound 90] | 42 | 13 | 11 | 0 | 32 | 10 | – | – |
| COC/C(=N\OCc1c(Cl)cccc1/C(=N\OC)C(=O)OC)c1ccc(Cl)c(Cl)c1 [compound 68] | 45 | 9 | 17 | 2 | 40 | 12 | – | – |
| CCOC/C(=N\OCc1c(Cl)cccc1/C(=N\OC)C(=O)OC)c1ccc(F)cc1 [compound 24] | – | – | – | – | 68 | 48 | 83 | 82 |
